From the NIST ThermoML archive (doi:10.1016/j.jct.2006.06.008)

Experiment: xn = mol fraction of the nth substance listed
Settings: 101 kPa, Liquid

C1CCCCC1 [cyclohexane] + CCO
Settings | mass density, 293.15 K [kg/m3] | mass density, 298.15 K [kg/m3] | mass density, 303.15 K [kg/m3] | speed of sound, 293.15 K [m/s] | speed of sound, 298.15 K [m/s] | speed of sound, 303.15 K [m/s] | viscosity, 293.15 K [mPa·s] | viscosity, 298.15 K [mPa·s] | viscosity, 303.15 K [mPa·s]
x1 = 0.0473 | 787 | 782.65 | 778.29 | 1162 | 1144 | 1127 | 1.148 | 1.046 | 0.956
x1 = 0.096 | 784.97 | 780.6 | 776.2 | 1165 | 1147 | 1129 | 1.102 | 1.009 | 0.922
x1 = 0.2043 | 781.33 | 776.87 | 772.37 | 1174 | 1155 | 1135 | 1.051 | 0.954 | 0.875
x1 = 0.3028 | 779.4 | 774.86 | 770.28 | 1184 | 1164 | 1144 | 1.005 | 0.918 | 0.838
x1 = 0.3979 | 778.2 | 773.6 | 768.95 | 1195 | 1174 | 1153 | 0.978 | 0.893 | 0.818
x1 = 0.5027 | 777.4 | 772.73 | 768 | 1208 | 1186 | 1164 | 0.954 | 0.87 | 0.796
x1 = 0.5939 | 776.98 | 772.26 | 767.49 | 1219 | 1196 | 1174 | 0.934 | 0.853 | 0.781
x1 = 0.7051 | 776.79 | 772.03 | 767.22 | 1232 | 1209 | 1186 | 0.915 | 0.836 | 0.769
x1 = 0.8055 | 776.89 | 772.11 | 767.28 | 1245 | 1221 | 1197 | 0.908 | 0.833 | 0.769
x1 = 0.9041 | 777.3 | 772.5 | 767.8 | 1258 | 1235 | 1211 | 0.923 | 0.846 | 0.778
x1 = 0.9534 | 777.74 | 772.98 | 768.18 | 1267 | 1242 | 1218 | 0.941 | 0.862 | 0.793
x1 = 1 | 778.62 | 773.92 | 769.19 | 1279 | 1254 | 1230 | 0.968 | 0.887 | 0.816

CCCO [propan-1-ol] + C1CCCC1
x2 = 0
Settings | mass density [kg/m3] | speed of sound [m/s] | viscosity [mPa·s]
293.15 K | 803.59 | 1223 | 2.159
298.15 K | 799.58 | 1206 | 1.915
303.15 K | 795.55 | 1189 | 1.713

CCO [ethanol] + C1CCCC1
x2 = 0
Settings | mass density [kg/m3] | speed of sound [m/s] | viscosity [mPa·s]
293.15 K | 789.75 | 1162 | 1.187
298.15 K | 785.46 | 1145 | 1.082
303.15 K | 781.15 | 1128 | 0.987

C1CCCC1 [cyclopentane] + CCCCO
Settings | mass density, 293.15 K [kg/m3] | mass density, 298.15 K [kg/m3] | mass density, 303.15 K [kg/m3] | speed of sound, 293.15 K [m/s] | speed of sound, 298.15 K [m/s] | speed of sound, 303.15 K [m/s] | viscosity, 293.15 K [mPa·s] | viscosity, 298.15 K [mPa·s] | viscosity, 303.15 K [mPa·s]
x1 = 0.0446 | – | 802.7 | 798.9 | – | 1236 | 1218 | – | 2.388 | 2.108
x1 = 0.046 | 806.62 | – | – | 1252 | – | – | 2.714 | – | –
x1 = 0.0914 | 803.7 | – | – | 1248 | – | – | 2.541 | – | –
x1 = 0.0995 | – | 798.99 | 795.01 | – | 1229 | 1211 | – | 2.168 | 1.92
x1 = 0.1924 | 796.71 | 792.62 | 788.49 | 1239 | 1220 | 1201 | 2.095 | 1.855 | 1.651
x1 = 0.294 | 789.84 | – | – | 1230 | – | – | 1.683 | – | –
x1 = 0.312 | – | 784.43 | 780.13 | – | 1209 | 1189 | – | 1.499 | 1.349
x1 = 0.3875 | – | 779.26 | 774.85 | – | 1203 | 1182 | – | 1.233 | 1.108
x1 = 0.398 | 782.75 | – | – | 1223 | – | – | 1.358 | – | –
x1 = 0.5104 | – | 770.8 | 766.2 | – | 1194 | 1172 | – | 0.945 | 0.865
x1 = 0.5211 | 774.4 | – | – | 1215 | – | – | 1.014 | – | –
x1 = 0.6157 | – | 763.63 | 758.89 | – | 1189 | 1166 | – | 0.748 | 0.689
x1 = 0.6208 | 767.72 | – | – | 1211 | – | – | 0.807 | – | –
x1 = 0.7182 | 761.29 | – | – | 1209 | – | – | 0.654 | – | –
x1 = 0.7372 | – | 755.6 | 750.73 | – | 1186 | 1162 | – | 0.588 | 0.547
x1 = 0.8124 | 755.51 | – | – | 1210 | – | – | 0.555 | – | –
x1 = 0.8361 | – | 749.32 | 744.36 | – | 1187 | 1163 | – | 0.498 | 0.472
x1 = 0.9032 | – | 745.24 | 740.23 | – | 1191 | 1166 | – | 0.457 | 0.431
x1 = 0.9141 | 749.28 | – | – | 1216 | – | – | 0.48 | – | –
x1 = 0.9502 | – | 742.52 | 737.48 | – | 1195 | 1170 | – | 0.432 | 0.409
x1 = 0.9551 | 746.78 | – | – | 1220 | – | – | 0.456 | – | –
x1 = 1 | 744.52 | 739.55 | 734.54 | 1232 | 1206 | 1180 | 0.439 | 0.416 | 0.394

CCCCO [butan-1-ol] + C1CCCC1
x2 = 0
Settings | mass density [kg/m3] | speed of sound [m/s] | viscosity [mPa·s]
293.15 K | 809.5 | 1257 | 2.941
298.15 K | 805.75 | 1240 | 2.571
303.15 K | 801.8 | 1224 | 2.255

CCO [ethanol] + C1CCCCC1
x2 = 0
Settings | mass density [kg/m3] | speed of sound [m/s] | viscosity [mPa·s]
293.15 K | 789.75 | 1162 | 1.187
298.15 K | 785.46 | 1145 | 1.082
303.15 K | 781.15 | 1128 | 0.987

CCCCO [butan-1-ol] + C1CCCCC1
x2 = 0
Settings | mass density [kg/m3] | speed of sound [m/s] | viscosity [mPa·s]
293.15 K | 809.5 | 1257 | 2.941
298.15 K | 805.75 | 1240 | 2.571
303.15 K | 801.8 | 1224 | 2.255

C1CCCCC1 [cyclohexane] + CCCCO
Settings | mass density, 293.15 K [kg/m3] | mass density, 298.15 K [kg/m3] | mass density, 303.15 K [kg/m3] | speed of sound, 293.15 K [m/s] | speed of sound, 298.15 K [m/s] | speed of sound, 303.15 K [m/s] | viscosity, 293.15 K [mPa·s] | viscosity, 298.15 K [mPa·s] | viscosity, 303.15 K [mPa·s]
x1 = 0.0491 | 807.27 | 803.41 | 799.52 | 1254 | 1237 | 1220 | 2.777 | 2.437 | 2.147
x1 = 0.0988 | 804.96 | 801.04 | 797.08 | 1252 | 1234 | 1217 | 2.593 | 2.278 | 2.009
x1 = 0.2003 | 800.76 | 796.72 | 792.63 | 1249 | 1230 | 1211 | 2.254 | 1.984 | 1.756
x1 = 0.3081 | 796.54 | 792.37 | 788.15 | 1246 | 1227 | 1207 | 1.937 | 1.712 | 1.514
x1 = 0.4082 | 792.86 | 788.57 | 784.23 | 1245 | 1224 | 1204 | 1.684 | 1.492 | 1.33
x1 = 0.5125 | 789.41 | 785.01 | 780.55 | 1245 | 1224 | 1202 | 1.449 | 1.293 | 1.16
x1 = 0.6157 | 786.28 | 781.77 | 777.21 | 1247 | 1225 | 1202 | 1.257 | 1.13 | 1.023
x1 = 0.7086 | 783.78 | 779.19 | 774.55 | 1250 | 1227 | 1204 | 1.121 | 1.014 | 0.928
x1 = 0.8022 | 781.56 | 776.91 | 772.21 | 1255 | 1231 | 1208 | 1.047 | 0.955 | 0.874
x1 = 0.9029 | 779.62 | 774.9 | 770.14 | 1263 | 1239 | 1215 | 0.995 | 0.904 | 0.829
x1 = 0.9519 | 778.88 | 774.15 | 769.37 | 1269 | 1244 | 1220 | 0.972 | 0.889 | 0.817
x1 = 1 | 778.62 | 773.92 | 769.19 | 1279 | 1254 | 1230 | 0.968 | 0.887 | 0.816

CCCO [propan-1-ol] + C1CCCCC1
x2 = 0
Settings | mass density [kg/m3] | speed of sound [m/s] | viscosity [mPa·s]
293.15 K | 803.59 | 1223 | 2.159
298.15 K | 799.58 | 1206 | 1.915
303.15 K | 795.55 | 1189 | 1.713
